Reference: patent US20160223522A1, “ASSAY FOR DETERMINING RELATIVE REDOX CHANGES IN LIVING CELLS AND ASSOCIATED DEVICES, SYSTEMS, AND METHODS” (University of Utah Research Foundation, priority 2013, published 2016)
Read-outs that look alike come from different tables or passages of the source. Ends that are not written are not given here.

Columns and labels:
[1] = system: BJ fibroblasts; experiment: Secondary test: protection of cells from hydrogen peroxide oxidative stress, viability by Alamar Blue; format: cell-based, human; conditions: 4 μM hit for 24 hours; 980 μM hydrogen peroxide for four hours; viability 24 hours following treatment (FIG. 11c)
Description: (§1) For comparison with Alamar Blue™ (Invitrogen, Carlsbad, Calif.), cells in a 96-well plate were washed with PBS followed by four hours of incubation with Alamar Blue diluted 1:10 in normal media according to the manufacturer's instructions. Alamar Blue fluorescence was assayed in a plate reader using excitation and emission wavelengths 540 nm and 590 nm, respectively.
(§2) A secondary test was performed to evaluate the ability of each hit to protect cells from oxidative stress. Cells in 96-well plates were incubated with hits dissolved to 4 μM in cell media for 24 hours (three wells per compound). Cells were then washed once with PBS, and treated with hydrogen peroxide dissolved in cell media for four hours. Cells were then washed once with PBS, and cell viability was assayed with Alamar Blue.
(§3) Control cells were not treated with hydrogen peroxide. Every other category, including DMSO, was treated with 240 μM hydrogen peroxide for four hours prior to viability assessment with Alamar Blue. P-value for 10E4 vs. DMSO is 0.04, p-value for 10E4 vs. control is 0.98, and p-value for DMSO vs. control is 0.02. […] Control cells were not treated with hydrogen peroxide. DMSO pre-treated cells and every other category was treated with 980 μM hydrogen peroxide for four hours prior to the addition of Alamar Blue. […]

[2] = system: H9C2 cells; experiment: as above; format: cell-based, rat; conditions: 4 μM hit for 24 hours; 24 hours after treatment with 600 μM hydrogen peroxide (FIG. 11b)
Description: as §1, §2, §3

[3] = system: BJ fibroblasts; experiment: Reductide plate reader assay in cells (FAM signal after treatment with redox-modifying agents); format: cell-based, human; conditions: for reductide FAM signal, % of control at 50 µM: Homo sapiens, Fibroblast, 50 μM compound for 24 hours, then reductide 1.5 μM for four hours, in comparison with vehicle treated cells, read-out: % change from control (reductide FAM signal)
Description: BJ fibroblasts were trypsinized and re-plated in a 96-well plate (5,000 cells/well) in normal growth medium and allowed to attach overnight. Media was replaced with normal media supplemented with the chemical redox-modifying agent indicated in the “Results” section for the indicated duration of treatment. Cells were subsequently washed one time with PBS and media was replaced with normal media supplemented with reductide 1 μM.
BJ fibroblasts in 96-well plates were pretreated with various redox-modifying agents followed by washing, incubation with reductide, and assessment of fluorescence by plate reader. […] However, following twenty-four hours of treatment with H2O2, FAM signal was increased for BJ fibroblasts treated with 200-400 μM H2O2 (FIG. 4D) but decreased with higher doses.
Although glutathione is the most abundant intracellular redox buffering system, the protein thioredoxin also acts as an important redox buffer. In order to test whether uptake and reduction of reductide is affected by glutathione status, thioredoxin status, or both, BJ fibroblasts were treated with the specific inhibitor of thioredoxin reductase, aurothioglucose, the inhibitor of glutathione biosynthesis, 1-buthionine sulfoximine (BSO), or both for 24 hours followed by washing, incubation with reductide for four hours, and plate reader assay. […] Thus, uptake and reduction of reductide depends on both glutathione and thioredoxin systems.
In another test to determine whether uptake and reduction of reductide is affected by glutathione status, BJ fibroblasts were treated with 1-buthionine sulfoximine (BSO), an inhibitor of glutathione biosynthesis, or diamide, a thiol oxidizing agent that decreases the cellular GSH to GSSG ratio. […] The following day, cells were treated with the glutathione biosynthesis inhibitor 1-buthionine sulfoximine (BSO) (FIG. 6a) or the thiol oxidizing agent diamide (FIG. 6b) in normal media also containing reductide 1 μM.
The following day, cells were incubated in normal cell media supplemented with 50 μM of a redox-modifying compound from the redox library distributed from Enzo Life Sciences. Each redox compound was used to treat three wells for 24 hours. Afterward, cells were washed with PBS followed by incubation in reductide 1 μM dissolved in normal media for four hours. FAM signal from reduction of reductide's disulfide bond was assayed in a plate reader. Most compounds in the library are classified as antioxidants. […] It should be noted that the screening conditions (50 μM concentration, 24 hour drug incubation) were not optimized for each drug individually. That many antioxidants can act as pro-oxidants if their concentration is sufficiently high is well known. […] When retested at new concentrations, different results were obtained (FIG. 10a-c), showing an increase in signal expected for reduction.
Cells were subsequently washed with PBS and incubated with reductide 1.5 μM dissolved in cell media for four hours. FAM signal was assayed in a plate reader. The redox modifying compounds were obtained as an 84 compound library from Enzo Life Sciences. Percentage change in reductide signal in comparison with vehicle treated cells are shown for a subset of the redox modifying compounds.

[4] = system: IMR90 fibroblasts
Description: For comparison with monochlorobimane, IMR90 fibroblasts were seeded into a 96 well plate at a density of 50,000 cells per well and attached overnight. Cells were incubated for 60 minutes in media containing NAC or H2O2 at the indicated concentrations. Cells were washed twice in 200 μl of PBS. Monochlorobimane was used to assay reduced GSH content in half the wells using the Glutathione Assay Kit available from Sigma (CS 1020, St. Louis, Mo., USA), following the manufacturer's instructions for use in live cells in a plate reader. At the same time, reductide was dissolved in the same assay buffer used for monochlorobimane treatment and added to half of the wells at a concentration of 1 μM. Fluorimetric readings were performed in a Synergy HT plate reader using excitation and emission wavelengths of 485 nm/528 nm for reductide and 390 nm/478 nm for monochlorobimane. Each cell condition was triplicated, and each experiment was repeated two times.
Reductide (FIG. 8a) is compared with monochlorobimane (FIG. 8b), which is non-fluorescent unless conjugated to low molecular weight thiols, in IMR90 fibroblasts following pretreatment with NAC or H2O2. Cells were seeded into a 96-well plate at a density of 50,000 cells per well and allowed to attach overnight. […]

[5] = system: IMR90 fibroblasts; experiment: Flow cytometry of cells incubated with reductide (TAMRA, FAM, DAPI, side-scatter); format: cell-based, human
Description: IMR90 fibroblasts were seeded onto six 10 cm dishes at a density of 1.8×10^6 cells and allowed to attach overnight. Three dishes were treated with H2O2 600 μM and another three with NAC 4 mM, each in normal media, for one hour. Cells were washed with PBS followed by incubation with reductide 1 μM in normal media for 3, 15, or 30 minutes. Cells were then washed again with PBS followed by trypsinization and collection in normal media without phenol red. Cell concentration was 10^6 per ml. DAPI was added at 1:500 dilution and cells were analyzed by flow cytometry for TAMRA and FAM fluorescence.
IMR90 cells were seeded into 10 cm dishes at a density of 1.8×106 and allowed to attach overnight. The following day, cells were pretreated with NAC 4 mM or H2O2 600 μM for 60 minutes prior to peptide incubation.

[6] = within 30 minutes of incubation; cited from earlier work
[7] = treated for 24 hours, washing, reductide for four hours (FIG. 5)
[8] = treated in normal media also containing reductide 1 μM (FIGS. 6a-b)
[9] = pretreatment at varied concentration, washing, incubation with reductide (FIG. 4A, 4B)
[10] = 50 μM for 24 hours, then reductide 1 μM for four hours
[11] = retested at lower concentrations (FIG. 10a-c)

## C=C(C)C(=O)C(=CC(=O)O)OC [3E7, penicillic acid]
[1]
  viability vs. control (not treated with hydrogen peroxide): significantly higher than control

## CN(C)C(=S)SSC(=S)N(C)C [9B11, thiram]
[2]
  viability signal vs. DMSO: significantly higher than DMSO

## CC(=O)O[C@@H]1C[C@@]2(C)[C@H](c3ccoc3)C[C@H]3O[C@]32[C@]2(C)C(=O)C(O)=C3C(C)(C)C(=O)C=C[C@]3(C)[C@@H]12 [20B8, anthothecol]
[2]
  viability signal vs. DMSO: significantly higher than DMSO

## CCCCS(=N)(=O)CCC(N)C(=O)O (centres unmarked) [BSO, 1-buthionine sulfoximine]
[3]; [7]
  reductide FAM signal: significant increase in signal
[3]; [8]
  reductide FAM signal: significant decrease in reductide FAM signal

## O=[N+]([O-])c1ccc(Cl)c([N+](=O)[O-])c1 [CDNB, 1-chloro-2,4-dinitrobenzene]
[3]; [9]
  FAM signal after pretreatment: decreased in proportion to the concentration

## O=c1c2ccccc2[se]n1-c1ccccc1 [Ebselen]
[3]
  reductide FAM signal, % of control at 50 µM: 77.2%

## CCOc1ccc2c(c1)C(C)=CC(C)(C)N2 [Ethoxyquin]
[3]
  reductide FAM signal, % of control at 50 µM: 155%

## Cc1cc(Cc2cc(C)cc(C(C)(C)C)c2O)c(O)c(C(C)(C)C)c1 [GERI-BP002A]
[3]; [10]
  FAM signal relative to vehicle treated cells: significant decrease in FAM signal
[3]; [11]
  FAM signal relative to vehicle treated cells: increase in FAM signal consistent with reduction

## OO [H2O2, hydrogen peroxide]
[4]; pretreatment 600 μM for 60 minutes (FIG. 8a)
  FAM signal following incubation with reductide: significant decrease in FAM signal
[4]; pretreatment with low doses for 60 minutes (FIG. 8a)
  FAM signal following incubation with reductide: mild increases in FAM signal
[3]; four hours of incubation with H2O2 (FIG. 4C)
  FAM signal after pretreatment: decreased in proportion to H2O2 concentration
[3]; twenty-four hours of treatment, 200-400 μM H2O2 (FIG. 4D)
  FAM signal after pretreatment: increased
[3]; twenty-four hours of treatment, higher doses than 200-400 μM (FIG. 4D)
  FAM signal after pretreatment: decreased
[5]; reductide 1 μM for 3, 15 or 30 minutes vs. controls, H2O2 600 μM pretreatment for 60 minutes
  nonviable cells by side-scatter or DAPI signal: No increase in nonviable cells

## COC1=C(OC)C(=O)C(CCCCCCCCCCO)=C(C)C1=O [Idebenone]
[3]
  reductide FAM signal, % of control at 50 µM: 121%

## CCN1C(=O)C=CC1=O [N-Ethylmaleimide]
[3]
  reductide FAM signal, % of control at 50 µM: -71.7%

## CC(=O)N[C@@H](CS)C(=O)O [NAC, N-acetylcysteine]
[3]; [9]
  FAM signal after pretreatment: increased in proportion to the concentration
[5]; pretreatment NAC 4 mM for 60 minutes, then reductide 1 μM
  TAMRA signal (reductide uptake): strongest

## CCCCCCCCCCCCCCCC(=O)OC/C=C(C)/C=C/C=C(C)/C=C/C1=C(C)CCCC1(C)C [Retinyl palmitate]
[3]
  reductide FAM signal, % of control at 50 µM: 124%

## CC1=C(C)C(=O)C(C(CCCCCC(=O)O)c2ccccc2)=C(C)C1=O (centres unmarked) [Seratrodast]
[3]
  reductide FAM signal, % of control at 50 µM: 135%

## OC[C@H]1O[C@H]([S-])[C@H](O)[C@@H](O)[C@@H]1O.[Au+] [aurothioglucose]
[3]; [7]
  reductide FAM signal: small increase in reductide FAM signal that was not statistically significant

## COc1ccccc1OCCNCC(O)COc1cccc2[nH]c3ccccc3c12 (centres unmarked) [carvedilol]
[3]; [10]
  FAM signal relative to vehicle treated cells: significant decrease in FAM signal
[3]; [11]
  FAM signal relative to vehicle treated cells: increase in FAM signal consistent with reduction

## CN(C)C(=O)/N=N/C(=O)N(C)C [diamide]
[3]; [8]
  reductide FAM signal: significant decrease in reductide FAM signal

## C[Se]CC[C@H](N)C(=O)O [selenomethionine]
[3]; all concentrations tested (FIG. 10a-c)
  FAM signal relative to vehicle treated cells: significant increase in FAM signal consistent with reduction

## CC1=C(/C=C/C(C)=C/C=C/C(C)=C/C=C/C=C(C)/C=C/C=C(C)/C=C/C2=C(C)CCCC2(C)C)C(C)(C)CCC1 [β-carotene]
[3]
  reductide FAM signal, % of control at 50 µM: 111%

## KLALKLALKALKAALKLA-NH2 [MAP]
[6]
  internalized fraction: 60%
